Reference: patent US20020162794A1, “Anaerobic digestion” (priority 2001, published 2002)
Several values for one entry are separate records, joined by “and”; a condition that tells them apart may be missing. Equal values may be shown once.

Key:
[1] = system: bacteria of the mixed anaerobic digester culture; assay: Bacterial colony counts from formate bioreactors; assay type: cell-based
Description: Procedure for Bacterial Colony Counts from Formate Bioreactors
1. Collect samples from each bioreactor in sterile 30-mL glass vials with screw caps.
2. All subsequent operations are performed aseptically in the anaerobic chamber under an atmosphere of 3% H2/7% CO2/90% N2.
4. Seed 0.1-mL samples form the dilution blanks into tryptic soy agar plates.
5. Inoculate three plates for each dilution. Final dilutions on the plates are 10^−3 and 10^−4
6. Incubate all plates anaerobically for 3-4 days at room temperature (approximately 25° C.) prior to manually counting the numbers of colonies on each plate.
7. Calculate the numbers of colony-forming units (CFU) per ml in the original samples.

[2] = system: mixed culture from a publicly owned anaerobic digester (domestic sewage sludge); assay: Chemical Oxygen Demand (COD) of batch anaerobic digester reactors
Description: Two tests were run in which sodium formate in concentrations ranging from a few parts per million (ppm) up to ten percent (10%) on a mass basis were added to samples taken from a publicly owned anaerobic digester. The samples were first cultured in laboratory sized batch reactors. The twelve batch reactors were then sampled, and studied for periods of up to fifty-five days. The process variables that were monitored included COD (Chemical Oxygen Demand), TS (Total Solids), TVS (Total Volatile Solids) and the pH of the culture. Time and the initial sodium formate concentration level were the independent variables. Finally measurements were also made of the bacterial counts at the beginning and at the end of the fifty five day period. These experimental observations permitted partial identifications of the predominant bacterial colonies still viable in each of the twelve reactors used for each trial of the laboratory study.
Chemical Oxygen Demand (COD) measurements
To perform this measurement, a 5 ml of the sample from each of the 12 reactors is taken and diluted 10-fold to 50 ml. 5 ml of the now diluted sample is again diluted 10 fold to 50 ml. This double dilution represents a 100-fold dilution of the original sample. 2 ml of these diluted samples are put into standard COD test tubes. The test tubes are closed and shaken vigorously. The 13 (COD) test tubes (one is a control) are then heated to 150 deg. C for two hours. The UV spectrometer is calibrated by first analyzing the test tube with pure distilled water as the zero COD or control sample.
The sample test tubes are then analyzed for COD using UV spectrometer after inputting the method number and adjusting the frequency of UV rays to correspond to a sample with a high organic loading range. The readings that were obtained in units of mg/liter are multiplied by 100 to correct for the dilution procedure and to get COD concentration level for the original sample. COD is indicative of the organic substrate load level in the wastewater being treated or tested.
Municipal sludge from the city of Lubbock, Wastewater Treatment Plant was digested in 12 batch digesters. Using twelve batch reactors allowed the collection of control reactors data (i.e., no formate in the reactors) in triplicate, titration studies of increasing formate concentration, and duplicates/triplicates of varying formate concentration. Experiments were conducted in the laboratories of Texas Tech University.
The substrate taken was 2 parts of 50 g/liter sucrose solution mixed with 1 part of digested municipal sludge which acts as the seed material for incorporation of microbes into the reactors. The experiments were started with the following protocol. [drawing 1]

## O=C[O-].[Na+] [sodium formate]
[1]; 100 ppm to 100,000 ppm, lower counts at higher concentrations
  bacterial counts: > 10^5 CFU per milliliter
[1]; 5000 ppm, reactor 3
  Colony forming units per mL: 0.59 × 10^7 per mL
[1]; 10000 ppm, single reactors (2, 4, 5)
  Colony forming units per mL: 0.26 × 10^7 per mL and 0.19 × 10^7 per mL and 0.38 × 10^7 per mL
[2]; 1/4/99 run, 100 ppm, 0 Day
  COD Concentration: 29.5 g/L
[2]; 1/4/99 run, 100 ppm, 15 days
  COD Concentration: 43.8 g/L
[2]; 1/4/99 run, 100 ppm, 30 days
  COD Concentration: 39.1 g/L
[2]; 1/4/99 run, 1250 ppm, 0 Day
  COD Concentration: 40.3 g/L
[2]; 1/4/99 run, 1250 ppm, 15 days
  COD Concentration: 42.7 g/L
[2]; 1/4/99 run, 1250 ppm, 30 days
  COD Concentration: 32 g/L
[2]; 1/4/99 run, 2500 ppm, 0 Day
  COD Concentration: 17.1 g/L
[2]; 1/4/99 run, 2500 ppm, 15 days
  COD Concentration: 41.4 g/L
[2]; 1/4/99 run, 2500 ppm, 30 days
  COD Concentration: 38.9 g/L
[2]; 1/4/99 run, 3750 ppm, 0 Day
  COD Concentration: 38 g/L
[2]; 1/4/99 run, 3750 ppm, 15 days
  COD Concentration: 40.7 g/L
[2]; 1/4/99 run, 3750 ppm, 30 days
  COD Concentration: 47.8 g/L
[2]; 1/4/99 run, 5000 ppm, 0 Day
  COD Concentration: 37.5 g/L
[2]; 1/4/99 run, 5000 ppm, 15 days
  COD Concentration: 43.1 g/L
[2]; 1/4/99 run, 5000 ppm, 30 days
  COD Concentration: 46.6 g/L
[2]; 1/4/99 run, 6250 ppm, 0 Day
  COD Concentration: 34.3 g/L
[2]; 1/4/99 run, 6250 ppm, 15 days
  COD Concentration: 44.1 g/L
[2]; 1/4/99 run, 6250 ppm, 30 days
  COD Concentration: 38.1 g/L
[2]; 1/4/99 run, 7500 ppm, 0 Day
  COD Concentration: 36.7 g/L
[2]; 1/4/99 run, 7500 ppm, 15 days
  COD Concentration: 33 g/L
[2]; 1/4/99 run, 7500 ppm, 30 days
  COD Concentration: 55.8 g/L
[2]; 1/4/99 run, 8750 ppm, 0 Day
  COD Concentration: 24.9 g/L
[2]; 1/4/99 run, 8750 ppm, 15 days
  COD Concentration: 26.1 g/L
[2]; 1/4/99 run, 8750 ppm, 30 days
  COD Concentration: 53.8 g/L
[2]; 1/4/99 run, 10000 ppm, 0 Day
  COD Concentration: 33.8 g/L
[2]; 1/4/99 run, 10000 ppm, 15 days
  COD Concentration: 36.1 g/L
[2]; 1/4/99 run, 10000 ppm, 30 days
  COD Concentration: 45.5 g/L
[2]; 1/4/99 run, average 25 ppm (reactors 0, 0, 0, 100 ppm), 0 Day
  COD Concentration, Average: 37.825 g/L
[2]; 1/4/99 run, average 25 ppm (reactors 0, 0, 0, 100 ppm), 15 days
  COD Concentration, Average: 51.23 g/L
[2]; 1/4/99 run, average 25 ppm (reactors 0, 0, 0, 100 ppm), 30 days
  COD Concentration, Average: 39.125 g/L
[2]; 1/4/99 run, average 2500 ppm (1250, 2500, 3750 ppm), 0 Day
  COD Concentration, Average: 31.8 g/L
[2]; 1/4/99 run, average 2500 ppm (1250, 2500, 3750 ppm), 15 days
  COD Concentration, Average: 41.6 g/L
[2]; 1/4/99 run, average 2500 ppm (1250, 2500, 3750 ppm), 30 days
  COD Concentration, Average: 39.57 g/L
[2]; 1/4/99 run, average 6250 ppm (5000, 6250, 7500 ppm), 0 Day
  COD Concentration, Average: 36.17 g/L
[2]; 1/4/99 run, average 6250 ppm (5000, 6250, 7500 ppm), 15 days
  COD Concentration, Average: 40.07 g/L
[2]; 1/4/99 run, average 6250 ppm (5000, 6250, 7500 ppm), 30 days
  COD Concentration, Average: 46.83 g/L
[2]; 1/4/99 run, average 8750 ppm (7500, 8750, 10000 ppm), 0 Day
  COD Concentration, Average: 31.8 g/L
[2]; 1/4/99 run, average 8750 ppm (7500, 8750, 10000 ppm), 15 days
  COD Concentration, Average: 31.73 g/L
[2]; 1/4/99 run, average 8750 ppm (7500, 8750, 10000 ppm), 30 days
  COD Concentration, Average: 51.7 g/L
[2]; 7/1/99 run (Tables 5, 6), 1000 ppm, 0 Day (with formate addition)
  COD Concentration: 52 g/L and 60.8 g/L and 48.6 g/L
[2]; 7/1/99 run (Tables 5, 6), 1000 ppm, 7 Day
  COD Concentration: 65.8 g/L and 68.2 g/L and 50.3 g/L
[2]; 7/1/99 run (Tables 5, 6), 1000 ppm, 1 days, listed as Format
  COD Concentration: 51.5 g/L and 60.3 g/L and 57.2 g/L
[2]; 7/1/99 run (Tables 5, 6), 1000 ppm, 1 days, listed as Formate
  COD Concentration: 57.2 g/L
[2]; 7/1/99 run (Tables 5, 6), 1000 ppm, 4 days
  COD Concentration: 52 g/L and 51.4 g/L and 52.3 g/L
[2]; 7/1/99 run (Tables 5, 6), 1000 ppm, 9 days
  COD Concentration: 54.9 g/L and 48.5 g/L and 47.7 g/L
[2]; 7/1/99 run (Tables 5, 6), 1000 ppm, 16 days
  COD Concentration: 33.1 g/L and 41.4 g/L and 33.6 g/L
[2]; 7/1/99 run (Tables 5, 6), 1000 ppm, 55 days
  COD Concentration: 34 g/L and 46.6 g/L and 38 g/L
[2]; 7/1/99 run (Tables 5, 6), 5000 ppm, 0 Day (with formate addition)
  COD Concentration: 60.3 g/L
[2]; 7/1/99 run (Tables 5, 6), 5000 ppm, 7 Day
  COD Concentration: 52.2 g/L
[2]; 7/1/99 run (Tables 5, 6), 5000 ppm, 1 days
  COD Concentration: 46.8 g/L and 48.8 g/L
[2]; 7/1/99 run (Tables 5, 6), 5000 ppm, 4 days
  COD Concentration: 48.9 g/L
